Laboratory results as given in paper PMC3365038, “Optimization of a Novel Peptide Ligand Targeting Human Carbonic Anhydrase IX” (PLoS ONE, 2012).
Like-named read-outs stand apart in the source and are kept apart here. Blank lines part the entries; values can stand above or below the compound they belong to. Peptide text beside a SMILES is read from it.

What was measured:
[1] = tested on: CA IX positive human renal cell carcinoma SKRC 52 cells; assay: In vitro binding of 125I-labeled peptides on SKRC 52 cells; settings: for binding capacity on SKRC 52 cells compared to the native CaIX-P1 peptide: 125I-labeled fragments, result in words; for binding after 10 minutes compared to 30 minutes incubation: 125I-labeled peptides
Description: (§1) For binding experiments 5×10^5 SKRC 52 or BxPC3 cells were seeded into 6-well plates and cultivated in 3 mL of incubation medium at 37°C for 24 h. After cell blocking with RPMI 1640 (without FCS) containing 1% BSA, the medium was replaced with 1 mL of fresh medium (without FCS) containing 0.8–1.2×10^6 cpm of ^125I-labeled peptide and incubation was performed for time periods varying from 10 min to 2 h at 37°C. To determine specific versus nonspecific binding, the cells were incubated with unlabeled competitors at concentrations varying from 10^−4 to 10^−10 mol/L. Octreotide was used as negative control competitor. After incubation the medium was removed and the cells were washed three times with 1 mL ice cold PBS in order to remove the unbound radiolabeled peptide. Subsequently, the cells were lysed with 0.5 mL NaOH 0.3 mol/L and the radioactivity was measured with a γ-counter. Bound radioactivity was calculated as percentage applied dose per 10^6 cells. CA IX negative BxPC3 cells were used as negative control.

SKRC 52 cells [2] = assay: In vitro (medium) stability of 125I-labeled peptide on SKRC 52 cells; type: in vitro ADME, human
Description: (§2) Radio-HPLC was performed on an Agilent 1100 HPLC system equipped with a radioactivity detector (GABI Star, Raytest GmbH, Straubenhardt, Germany) using a Chromolith Performance RP-18e column (100×3 mm; Merck AG Darmstadt, Germany) eluted with a linear gradient (eluent A: 0.1% TFA in water; eluent B: 0.1% TFA in acetonitrile; 0–30% B in 10 min, flow rate: 2 mL/min).
(§3) ^125I-labeled peptide was incubated at 37°C on SKRC 52 and BxPC3 cells. At time points varying from 10 min to 2 h aliquots were taken and centrifuged for 5 min at 13,000 rpm. The supernatant was analyzed by HPLC with H2O∶CH3CN, 0–30% in 10 min.

Serum stability assay = type: in vitro ADME; settings: radiolabeled peptide 5 MBq in 500 µL human serum (Sigma Aldrich, H4522), 37°C, aliquots by radio-HPLC
Description: as §2
Metabolic stability was investigated in human serum (Sigma Aldrich, H4522). 5 MBq of radiolabeled peptide was dissolved in human serum (500 µL) and incubated at 37°C. The stability of the labeled peptide was monitored by analyzing aliquots (25 µl) via radio-HPLC at selected time points.

SKRC 52 cells [3] = type: binding, human; settings: for inhibition of the radioligand binding: 10^−4 mol/L competitor concentration; for inhibition of the radioligand binding / binding inhibition: 125I-CaIX-P1-4-10 on SKRC 52 cells; for binding inhibition: competitor concentration of 10^−5 mol/L
Description: as §1

BxPC3 cells = assay: In vitro (medium) stability of 125I-labeled peptide on BxPC3 cells; type: in vitro ADME, human; settings: 37°C, 10 min to 2 h, supernatant by radio-HPLC
Description: as §2, §3

in vivo = assay: in vivo; parameters: species or system Balb/c nu/nu mice; settings: female, Balb/c nu/nu, mouse, iv, 1 MBq, total radioactivity, Tumor to organ ratio
Description: Organ distribution studies were performed in 9-week-old female Balb/c nu/nu mice, carrying subcutaneously transplanted SKRC 52 tumors. Animals were obtained from Charles River WIGA and housed in VentiRacks (BioZone Global). For tumor transplantation, SKRC 52 cells were grown to 90% confluence, harvested with PBS/ethylene diamine tetraacetic acid, resuspended in Falcon Matrigel-Matrix (BD) and kept on ice. 200 µl of Matrigel-Matrix cell suspension were injected subcutaneously into the anterior region of the mouse trunk and the tumors were grown to a size of 1.0 cm^3. ^131I-labeled CaIX-P1-4-10 was injected into the tail vein of the animals (approximately 1 MBq) and at 15 min, 60 min and 240 min after injection the animals were sacrificed. Tumor, blood and selected tissues (heart, spleen, liver, kidney, muscle, intestinum and brain) were removed, drained of blood, weighed and the radioactivity was measured in a γ-counter (LB 951G; Berthold Technologies). Also 3 aliquots of the tracer solution used for injection were measured. The organ uptake was calculated as percentage injected dose per gram tissue (% ID/g).

Compound: TNHVPLSPy [CaIX-P1-3-10, fragment representing the middle part of CaIX-P1 (TNHVPLSPy)]
binding capacity on SKRC 52 cells compared to the native CaIX-P1 peptide [1]: up to five-fold higher binding capacity
binding after 10 minutes compared to 30 minutes incubation [1]: higher after 10 minutes as compared to 30 minutes incubation

Compound: YNTNHVPL [CaIX-P1-1-8, 8-amino acid fragment of CaIX-P1 (YNTNHVPL)]
binding capacity on SKRC 52 cells compared to the native CaIX-P1 peptide [1]: significantly reduced binding activity

Compound: HVPLSPKy [CaIX-P1-5-12]
binding capacity on SKRC 52 cells compared to the native CaIX-P1 peptide [1]: significantly reduced binding activity

Continued, in another order:

degradation in medium at 120 min (SKRC 52 cells [2]; 125I-labeled peptide on SKRC 52 cells, 37°C, 120 min incubation, supernatant by radio-HPLC): completely degraded
activity (intact radioligand) measured in medium (SKRC 52 cells [2]; 125I-labeled peptide on SKRC 52 cells, 37°C, after 60 min incubation, supernatant by radio-HPLC): 30%
degradation site in the sequence (SKRC 52 cells [2]; comparison of HPLC chromatograms of C-terminal fragments with SKRC 52 cell medium supernatants): degraded between ^6S and ^7P
Serum half life (Serum stability assay): 1.5 h
IC50 (SKRC 52 cells [3]; 24 h): 130 nM
radioligand degradation in medium on BxPC3 cells (BxPC3 cells): No radioligand degradation
Compound: CC(C)C[C@H](NC(=O)[C@@H]1CCCN1C(=O)[C@@H](NC(=O)[C@H](Cc1c[nH]cn1)NC(=O)[C@@H](N)CC(N)=O)C(C)C)C(=O)N[C@@H](CO)C(=O)N1CCC[C@H]1C(=O)N[C@H](Cc1ccc(O)cc1)C(N)=O [CaIX-P1-4-10] (HELM PEPTIDE1{N.H.V.P.L.S.P.[dY].[am]}$$$$V2.0; N-terminus assumed)
binding capacity on SKRC 52 cells compared to the native CaIX-P1 peptide [1]: almost six-fold binding
inhibition of the radioligand binding (SKRC 52 cells [3]): over 95%
binding inhibition (SKRC 52 cells [3]): about 95%

tissue to tissue ratio at 0.25 h (in vivo; Blood): 0.63
tissue to tissue ratio at 1 h (in vivo; Blood): 0.69
tissue to tissue ratio at 4 h (in vivo; Blood): 0.67
tissue to tissue ratio at 0.25 h (in vivo; Brain): 13.9
tissue to tissue ratio at 1 h (in vivo; Brain): 14.9
tissue to tissue ratio at 4 h (in vivo; Brain): 15.1
tissue to tissue ratio at 0.25 h (in vivo; Heart): 1.63
tissue to tissue ratio at 1 h (in vivo; Heart): 2.09
tissue to tissue ratio at 4 h (in vivo; Heart): 1.84
tissue to tissue ratio at 0.25 h (in vivo; Kidney): 0.56
tissue to tissue ratio at 1 h (in vivo; Kidney): 0.73
tissue to tissue ratio at 4 h (in vivo; Kidney): 0.61
tissue to tissue ratio at 0.25 h (in vivo; Liver): 1.32
tissue to tissue ratio at 1 h (in vivo; Liver): 1.65
tissue to tissue ratio at 4 h (in vivo; Liver): 1.49
tissue to tissue ratio at 0.25 h (in vivo; Lung): 0.86
tissue to tissue ratio at 1 h (in vivo; Lung): 0.88
tissue to tissue ratio at 4 h (in vivo; Lung): 0.92
tissue to tissue ratio at 0.25 h (in vivo; Muscle): 3.36
tissue to tissue ratio at 1 h (in vivo; Muscle): 3.39
tissue to tissue ratio at 4 h (in vivo; Muscle): 2.53
tissue to tissue ratio at 0.25 h (in vivo; Spleen): 1.06
tissue to tissue ratio at 1 h (in vivo; Spleen): 1.39
tissue to tissue ratio at 4 h (in vivo; Spleen): 1.35
Compound: CC(C)C[C@H](NC(=O)[C@@H]1CCCN1C(=O)[C@@H](NC(=O)[C@H](Cc1c[nH]cn1)NC(=O)[C@@H](N)CC(N)=O)C(C)C)C(=O)N[C@@H](CO)C(=O)N1CCC[C@H]1C(=O)N[C@H](Cc1ccc(O)c(I)c1)C(N)=O [^131I-CaIX-P1-4-10] (HELM PEPTIDE1{N.H.V.P.L.S.P.[O=C([C@@H](Cc1ccc(O)c(I)c1)N[*:1])[*:2]].[am]}$$$$V2.0; N-terminus assumed)

IC50 (SKRC 52 cells [3]; unlabeled competitor against 125I-CaIX-P1-4-10 on SKRC 52 cells, read-out: IC50): 1500 nM
Compound: YNTNHVPLSPKY [CaIX-P1]
binding after 10 minutes compared to 30 minutes incubation [1]: higher after 10 minutes as compared to 30 minutes incubation
inhibition of the radioligand binding (SKRC 52 cells [3]): over 95%
binding inhibition (SKRC 52 cells [3]): about 80%
